Data reported in US11179455B2, “Use of a growth hormone secretagogue peptide as a vaccine adjuvant” (priority 2016, dated 2021).
Bridge positions count the residues as written; N and C are the ends. Square brackets hold non-standard residues; d marks the D form. Ends that are not written are not given here.

Legend:
OVA [1] = test: Humoral immune response against OVA in mice, A233 co-administered; type: in vivo, BALB/c mice; details: i.p.; 5 μg OVA + 10 μg A233/animal, Freund's adjuvant; vs OVA alone; day 22
Description: To evaluate whether the peptide A233 exerts an adjuvant effect on OVA, 18 female BALB/c mice were used. Mice received 150 μL of immunogen in all groups, by i.p route, which was given to the animals on days 1 and 15 of the immunization schedule. Blood samples were taken at days 0 (preimmune serum), 8, 15, 22, 36, 43 and 50. The titers of total IgG present in the sera were evaluated. The animals were immunized with 5 μg OVA/animal and 10 μg A233/animal (Group 2), or with 5 μg of OVA/animal (Group 3). The control group was injected with PBS (Group 1). All immunogens were emulsified with Freund's adjuvant.

my32 = test: Anti-my32 IgM response to P0-my32 in tilapia; type: in vivo, Oreochromis niloticus; details: i.p., day 28; for Anti-my32 IgM antibody titers: P0-my32 1 μg/g co-administrated with 20 μg peptide, Montanide ISA 50, vs P0-my32
Text: (§1) The chimeric protein P0-my32 was generated by cloning the complementary deoxyribonucleic acid (cDNA) encoding a 35 amino acid peptide of the L. salmonis P0 ribosomal protein fused to the N-terminal end of the cDNA encoding the my32 protein of the same ectoparasite (Carpio et al., 2013; Exp. Parasitol 135: 188-199), in a vector designed for the induced expression of genes of interest in the host bacterium E. coli. This protein was produced in the bacterium and purified, as a fusion protein with a tail of histidine, by metal chelate affinity chromatography.
(§2) For the accomplishment of the immunization experiment, 6 study groups of male juveniles of Oreochromis niloticus, were formed, with 15 animals each. In all groups, the immunogen was administered by i.p. route, adjuvanted with Montaide ISA 50.
(§3) The experimental groups received the following immunogens:
(§4) Group 2: P0-my32 (1 μg/g of fish weight)
(§5) Group 3: P0-my32 (1 μg/g of fish weight) co-administrated with 20 μg GHRP-6
(§6) Group 4: P0-my32 (1 μg/g of fish weight) co-administrated with 20 μg A233
(§7) Group 5: P0-my32 (1 μg/g of fish weight). The fish in this group were fed with feed formulated with 100 μg of GHRP-6 per kg of feed, twice daily, for one week before and one week after the administration of my32 in injections.
(§8) During the course of the experiment, the fish in groups 1 to 4 were fed twice daily with a balanced unmedicated commercial formula, at the rate of 1% of their body weight. Immunizations were performed on days 0 and 14 of the schedule. Blood samples were taken at days 0, 21, 28 and 35 from the start of the experiment.

P0 [2] = test: Anti-P0 IgM response to P0-TT in clarias; type: in vivo, Clarias gariepinus; details: i.p.; P0-TT 1 μg/g + 20 μg peptide per animal, Montanide ISA 50; vs P0-TT without peptide; day 28
Description: […]. For the experiment, 4 study groups of C. gariepinus were formed, with 12 animals in each one. These animals were immunized by i.p. route with 1 μg of the P0-TT protein per gram of animal weight (Group 2) or with the same dose of the chimeric protein P0-TT (1 μg/g of animal weight) co-administered with 20 μg of either GHRP-6 or A233 per animal (Groups 3 and 4, respectively), in a total volume of 120 μL. The control group (Group 1) received the same volume of PBS. The immunogens corresponding to all groups were emulsified with Montanide ISA 50 oily adjuvant. The immunization was performed under the same conditions, on days 0 and 14 of the administration schedule. Blood samples were taken at days 0, 21, 28 and 35 counted from the start of the experiment.

tilapia larvae = details: immersion baths; cited from earlier work
tilapia leukocytes = details: in vitro; cited from earlier work
P0 [3] = test: Anti-P0 IgM response to P0-my32 in tilapia; type: in vivo, Oreochromis niloticus; details: i.p., day 28; for Anti-P0 IgM titer: P0-my32 1 μg/g co-administrated with 20 μg peptide, Montanide ISA 50, vs P0-my32
Text: as §1, §2, §3, §4, §5, §6, §7, §8

activated macrophages = details: mouse, in vivo; cited from earlier work
Aeromonas hydrophila [4] = test: Controlled challenge with Aeromonas hydrophila in immunized common carp; type: in vivo, Cyprinus carpio; details: challenge on day 21 by i.p injection of LD50 of the bacterium; mortality recorded for 7 days
Description: The experiment was carried out with common carp (C. carpio) of 30±5 g. These animals were kept in 250 L aquaria, at a temperature of 30±2° C. Three experimental groups, of 20 carps each, were established and the animals were injected by i.p. route with:
Group 1: PBS+Montanide ISA 50
Group 2: Inactivated A. hydrophila cells (1×10^8 CFU)+Montanide ISA 50
(§9) Group 3: Inactivated A. hydrophila cells (1×10^8 CFU)+20 μg GHRP-6/fish+Montanide ISA 50.
Fish were injected on day 0 and 14. The challenge was performed on day 21, by i.p injection of the lethal dose 50 (LD50) of the bacterium, and the mortality in each group was recorded for 7 days. The relative survival rate (RSR) was calculated as: RSR(%)=(% mortality of controls−% mortality of treated animals)/(% mortality of controls)×100.

Aeromonas hydrophila [5] = test: Agglutinating antibodies against Aeromonas hydrophila in common carp; type: in vivo, Cyprinus carpio; details: i.p.; inactivated cells 1×10^8 CFU + 20 μg GHRP-6/fish + Montanide ISA 50; vs bacterium without GHRP-6; day 21
Description: The experiment was carried out with carps (C. carpio) of 40±10 g. These animals were kept in 600 L aquaria, at a temperature of 28±2° C. Three experimental groups, of 10 carps each, were established and injected by i.p. route with the following immunogens:
Group 1: PBS+Montanide ISA 50.
Group 2: Inactivated A. hydrophila cells (1×10^8 Colony Forming Units, abbreviated CFU)+Montanide ISA 50.
as §9
Fish were injected on days 0 and 14, and blood samples were collected from the caudal vein on days 0 and 21. […] The preparation of A. hydrophila cells and the measurement of antibody titers were performed according to previous reports (Yin et al. ((1996) Fish & Shellfish Immunol. 6, 57-69).

[6] = tested on: C2 antigen, a Dengue virus capsid protein; test: Humoral immune response against C2 antigen in mice, GHRP-6 co-administered; type: in vivo, BALB/c mice; details: s.c.; 10 μg C2 + 10 μg GHRP-6, aluminum hydroxide; vs C2 without GHRP-6; day 28
Description: The C2 antigen, a Dengue virus capsid protein, was obtained as a recombinant protein in Escherichia coli, with a molecular weight of 15 kDa. To evaluate the humoral and cellular immune response in mice vaccinated with C2, in presence or absence of GHRP-6, 24 female BALB/c mice, 6-weeks old, were selected. They were distributed into 3 groups. Each animal was given an immunogen, according to the experimental group:
Group 2: 10 μg C2 co-administrated with 10 μg GHRP-6
In all groups, the immunogens further comprised aluminum hydroxide, also known as alum. Immunizations were performed by s.c route, on days 0, 15 and 30 of the immunization schedule. Blood samples were taken at days 0 (pre-immune), 7, 16, 21, 28 and 35, to assess total IgG titers.

[7] = tested on: peptide P0 of R. sanguineus; test: Humoral immune response against peptide P0 of R. sanguineus in mice, GHRP-6 co-administered; type: in vivo, BALB/c mice; details: i.p.; 100 μg P0 + 200 μg GHRP-6, Freund's adjuvant; vs P0 without GHRP-6; day 36
Description: The peptide P0 is a fragment corresponding to the region of less sequence identity between the ribosomal protein P0 of the tick R. sanguineus and its mammalian host. To evaluate the humoral immune response stimulated by the co-administration of GHRP-6 and P0, 24 female, 6-week old BALB/c mice were selected and divided into three groups of 8 mice. Each animal received 150 μL of immunogen, by i.p route, on days 1, 15 and 29 of the immunization schedule. In the first immunization FCA was employed, and FIA was used in the other two administrations.
Group 3. 100 μg of P0 co-administrated with 200 μg of GHRP-6.
Blood samples were taken on days 0 (pre-immune serum), 8, 16, 21, 28, 36, 43, 50 and 58, to determine the levels of total IgG.

juvenile tilapia = details: orally fed; cited from earlier work
OVA [8] = test: Humoral immune response against OVA in mice, GHRP-6 co-administered; type: in vivo, BALB/c mice; details: for Total IgG titers against OVA: GHRP-6 10 μg + OVA 5 μg/animal, Freund's adjuvant, vs OVA without GHRP-6
Description: Thirty-six female BALB/c mice were used. Six study groups, with 6 animals each, were separated. Three groups were immunized by s.c route and the rest of them were treated by i.p route. In all groups, the immunogens were emulsified with Freund's adjuvant.
Group 1: Placebo (phosphate buffered saline, abbreviated PBS). s.c route.
Group 2: Placebo (PBS). i.p. route.
Group 3: GHRP-6 at 10 μg/animal and OVA at 5 μg/animal. s.c. route.
Group 4 GHRP-6 at 10 μg/animal and OVA at 5 μg/animal. i.p route.
Group 5: OVA 5 μg/animal. s.c. route.
Group 6: OVA 5 μg/animal. i.p. route.
Mice received 150 μL of the immunogen in all groups, which was administered to the animals on days 1 and 15 of the immunization schedule. Blood extractions were performed on days 0 (pre-immune serum), 8, 15, 22, 36, 43 and 50. Total IgG titers, IgG1 and IgG2a were evaluated. Complete Freund's Adjuvant (CFA) was used in the first immunization and Incomplete Freund's Adjuvant (IFA) in the next one. The animals of the group immunized with GHRP-6 and OVA, by s.c route, had higher titers (with statistical significance: p<0.05) than those of the group receiving OVA without GHRP-6, by the same route, on days 22, 36, 43 and 50 of the experiment (FIG. 1A). Animals injected with the same immunogens, but by i.p. route, had the same behavior on days 36 and 43 of the experiment (FIG. 1 B).

rainbow trout leucocytes = details: cited from earlier work
newly hatching chickens = details: dose of 100 ng in ovo, day 10 of incubation; cited from earlier work
[9] = Group 3 (with GHRP-6) vs Group 2
[10] = serum of day 36, s.c and i.p routes, OVA with vs without GHRP-6

## A233: growth hormone secretagogue peptide, structural analogue of GHRP-6 (GKFDLSPEHQ; lactam 2-4 (inferred))
OVA [1]
  Anti-OVA antibody titers (total IgG): significant increase
my32
  Anti-my32 IgM antibody titers: increase
P0 [2]
  Anti-P0 IgM antibody titers: same effect
Tilapia larvae
  Antioxidant defense, enzyme superoxide dismutase: stimulates
  Antiprotease activity: stimulates
  Lectin titers: stimulates
Tilapia leukocytes
  Production of indicators of phagocytic activity, such as superoxide anion: stimulated
P0 [3]
  Anti-P0 IgM titer: increase

## GHRP-2
Activated macrophages
  Arthritis: attenuated
  Release of interleukin 6 (IL-6) from activated macrophages: significantly inhibited
  Release of nitric oxide from activated macrophages: significantly inhibited

## His-D-Trp-Ala-Trp-D-Phe-Lys-NH2 (H[dW]AW[dF]K-NH2) [GHRP-6, synthetic growth hormone releasing peptide, hexamer, used as molecular adjuvant]
Aeromonas hydrophila [4]
  Relative survival rate (RSR): 95%
Aeromonas hydrophila [5]
  Titers of agglutinating antibodies against A. hydrophila: significantly higher
[6]
  Anti-C2 IgG titer: significant increase
[7]
  Anti-P0 IgG titers: significant increase
my32; [9]
  Number of anti-my32 responder animals, IgM titers greater than 1:1000: higher
my32
  Anti-my32 IgM antibody titers: increase
P0 [2]
  Anti-P0 IgM antibody titers: increase
Juvenile tilapia
  Lectin titers: increase
  Number of intraepithelial lymphocytes of the gastric mucosa: increase
OVA [8]; i.p. route, days 36 and 43
  Total IgG titers against OVA: same behavior
OVA [8]; intraperitoneal route, mean of the six animals in the group
  IgG1/IgG2a: significantly superior
OVA [8]; s.c. route, days 22, 36, 43 and 50, p<0.05
  Total IgG titers against OVA: higher titers
OVA [8]; [10]
  IgG1 titers: higher
  IgG2a titers: No significant differences
P0 [3]; [9]
  Number of anti-P0 responder animals, IgM titers greater than 1:1000: higher
P0 [3]
  Anti-P0 IgM titer: same effect

## [D-Lys3]-GHRP-6
Rainbow trout leucocytes; prior incubation before ghrelin
  Production of reactive oxygen species (O^2′—) after prior incubation with antagonist: decreased

## ghrelin: endogenous ligand for the growth hormone secretagogues receptor (GHS-R) (GSSFLSPEHQRVQQRKESKKPPAKLQPR; ends and bridges not checked; UniProt Q9UBU3 24-51, looked up)
Rainbow trout leucocytes; in vitro
  Levels of GH messenger ribonucleic acid: increases
  Production of superoxide anion: increases
  Superoxide dismutase: increases
Newly hatching chickens
  Count of heterophil, basophils and eosinophils, and heterophil/lymphocyte ratio: increase
  Lymphocytes: decreased
Activated macrophages
  Arthritis: attenuated
  Release of interleukin 6 (IL-6) from activated macrophages: significantly inhibited
  Release of nitric oxide from activated macrophages: significantly inhibited
